Reference: patent publication US9018451B2, “Optimized expression of glyphosate resistance encoding nucleic acid molecules in plant cells” (M S Technologies, LLC, priority 2010, dated 2015)

Columns and labels:
Assay in all cases: Field trial, in planta tolerance to glyphosate, injury assessed seven days after application
Assay type in all cases: in vivo, Glycine max
[1] = tested on: non-transgenic soybean (cv Maverick); conditions: Maverick non-transgenic control, 7 days after application
Protocol: (§1) Soybean events containing the 2mEPSPv2 expression cassette construct from pDAB8291 are tolerant to glyphosate. Field trials were performed during the 2009 and 2010 growing seasons. The plots were planted with the transgenic soybean seed which had been produced from the transformation with pDAB8291 and non-transgenic soybean (cv Maverick) which was used as a control. Field grown soybean plants from the T2 and T4 generation were sprayed with high rates of glyphosate. Glyphosate (DURANGO® herbicide Dow AgroSciences, Indianapolis, Ind.) applications were made at the V3 or V5 stage of plant development at a rate of 2,240 g ae/ha. Seven days after glyphosate application, the plants were assessed for injury.

[2] = tested on: Soybean event 8291-4524 expressing 2mEPSPS (construct pDAB8291); conditions: 7 days after application
Protocol: as §1

[3] = tested on: Soybean event 8291-4536 expressing 2mEPSPS (construct pDAB8291); conditions: 7 days after application
Protocol: as §1

[4] = tested on: soybean plants transformed with pDAB8291; conditions: T2 and T4 field grown plants, 2,240 g ae/ha at V3 or V5, seven days after application
Protocol: as §1

SMILES: O=C(O)CNCP(=O)(O)O [Glyphosate, N-phosphonomethylglycine]
- Adjusted Mean Injury 7daa(%) ([1]; T2 trial, application at V3, 2,240 g ae/ha glyphosate): 100%
- Adjusted Mean Injury 7daa(%) ([1]; T4 trial, application at V5, 2,240 g ae/ha glyphosate): 100%
- Adjusted Mean Injury 7daa(%) ([2]; event 8291-4524, T2 generation, application at V3, 2,240 g ae/ha glyphosate): 10%
- Adjusted Mean Injury 7daa(%) ([2]; event 8291-4524, T4 generation, application at V5, 2,240 g ae/ha glyphosate): 0.5%
- Adjusted Mean Injury 7daa(%) ([3]; event 8291-4536, T2 generation, application at V3, 2,240 g ae/ha glyphosate): 3.5%
- Adjusted Mean Injury 7daa(%) ([3]; event 8291-4536, T4 generation, application at V5, 2,240 g ae/ha glyphosate): 0.75%
- injury (damage) to plants as compared to Maverick controls [4]: Minimal damage
